Assay results taken from patent US4988677A, “Macrolide antibiotic and its use as a medicinal agent” (Hoechst Aktiengesellschaft, priority 1986, dated 1991).

Key:
[1] = test system: Strept. faecalis Eder:Mac^R; assay: MIC of swalpamycin, agar plate test; type: cell-based, Streptococcus faecalis; details: Strept. faecalis Eder:Mac^R (Mac = macrolide)
Excerpt: (§1) The minimum inhibitory concentration (MIC) of swalpamycin has been determined for various microorganisms. The results are to be found in Table I which follows:
(§2) *Mac = macrolide, Em = erythromycin, Meth = methicillin

S. aureus 209P = assay: MIC of swalpamycin, agar plate test; type: cell-based, Staphylococcus aureus
Excerpt: (§3) The minimum inhibitory concentration (MIC) of swalpamycin has been determined for various microorganisms.

mycoplasma = assay: antimycoplasma activity; type: cell-based
Excerpt: as §3

solubility = type: physicochemical
Excerpt: Swalpamycin is a colorless amorphous powder which is soluble in methanol, ethanol, n-propanol, isopropanol, n-butanol, ethyl acetate, n-butyl acetate, acetone, ethyl methyl ketone, methyl isobutyl ketone, methylene chloride, chloroform, dimethylformamide and dimethyl sulfoxide.

Mycoplasma pulmonis = assay: laboratory agar plate tests, antimicrobial spectrum; type: cell-based; details: strains of Mycoplasma pulmonis
Excerpt: as §3

Mycoplasma gallinarum = assay: as above; type: cell-based; details: strains of Mycoplasma gallinarum
Excerpt: as §3

Bacillus subtilis [2] = assay: as above; type: cell-based; details: strains of Bacillus subtilis
Excerpt: as §3

Streptococcus pyogenes = assay: as above; type: cell-based; details: strains of Streptococcus pyogenes
Excerpt: as §3

Micrococcus luteus [3] = assay: as above; type: cell-based; details: strains of Micrococcus luteus
Excerpt: as §3

Sarcina lutea [4] = assay: as above; type: cell-based; details: strains of Sarcina lutea
Excerpt: as §3

Staphylococcus aureus = assay: as above; type: cell-based; details: sensitive and resistant strains of Staphylococcus aureus
Excerpt: as §3

Streptococcus faecalis = assay: as above; type: cell-based; details: sensitive and resistant strains of Streptococcus faecalis
Excerpt: as §3

[5] = test system: Gram-positive bacteria, including erythromycin-resistant strains; assay: antibacterial activity; type: cell-based
Excerpt: as §3

Ps. aeruginosa M 35 = assay: MIC of swalpamycin, agar plate test; type: cell-based
Excerpt: as §3

Ent. cloacae = assay: MIC of swalpamycin, agar plate test; type: cell-based
Excerpt: as §3

Bacillus subtilis [6] = assay: MIC of swalpamycin, agar plate test; type: cell-based
Excerpt: as §3

E. coli 9632 = assay: MIC of swalpamycin, agar plate test; type: cell-based
Excerpt: as §3

Cit. freundii = assay: MIC of swalpamycin, agar plate test; type: cell-based
Excerpt: as §3

Prov. stuartii = assay: MIC of swalpamycin, agar plate test; type: cell-based
Excerpt: as §3

Pr. vulgaris = assay: MIC of swalpamycin, agar plate test; type: cell-based
Excerpt: as §3

Candida albicans = assay: MIC of swalpamycin, agar plate test; type: cell-based
Excerpt: as §3

Micrococcus luteus [7] = assay: MIC of swalpamycin, agar plate test; type: cell-based
Excerpt: as §3

Sarcina lutea [8] = assay: MIC of swalpamycin, agar plate test; type: cell-based
Excerpt: as §3

E. coli ESS 2231 = assay: MIC of swalpamycin, agar plate test; type: cell-based
Excerpt: as §3

S. aureus R 85,Em^R = assay: MIC of swalpamycin, agar plate test; type: cell-based, Staphylococcus aureus; details: S. aureus R 85,Em^R (Em = erythromycin)
Excerpt: as §1, §2

S. aureus MLS 14,Em^R = assay: MIC of swalpamycin, agar plate test; type: cell-based, Staphylococcus aureus; details: S. aureus MLS 14,Em^R (Em = erythromycin)
Excerpt: as §1, §2

S. aureus 789 Meth.^R = assay: MIC of swalpamycin, agar plate test; type: cell-based, Staphylococcus aureus; details: S. aureus 789 Meth.^R (Meth = methicillin)
Excerpt: as §1, §2

S. aureus 712 Meth^R = assay: MIC of swalpamycin, agar plate test; type: cell-based, Staphylococcus aureus; details: S. aureus 712 Meth^R (Meth = methicillin)
Excerpt: as §1, §2

S. aureus MLS 11,Em^R = assay: MIC of swalpamycin, agar plate test; type: cell-based, Staphylococcus aureus; details: S. aureus MLS 11,Em^R (Em = erythromycin)
Excerpt: as §1, §2

S. aureus R85/M, Em^R = assay: MIC of swalpamycin, agar plate test; type: cell-based, Staphylococcus aureus; details: Em^R (Em = erythromycin)
Excerpt: as §1, §2

S. aureus 3066 Meth.^R = assay: MIC of swalpamycin, agar plate test; type: cell-based, Staphylococcus aureus; details: S. aureus 3066 Meth.^R (Meth = methicillin)
Excerpt: as §1, §2

S. aureus 20424 Mac^R = assay: MIC of swalpamycin, agar plate test; type: cell-based, Staphylococcus aureus; details: S. aureus 20424 Mac^R (Mac = macrolide)
Excerpt: as §1, §2

S. aureus MLS 16,Em^R = assay: MIC of swalpamycin, agar plate test; type: cell-based, Staphylococcus aureus; details: S. aureus MLS 16,Em^R (Em = erythromycin)
Excerpt: as §1, §2

Strept. faecalis UD 86 = assay: MIC of swalpamycin, agar plate test; type: cell-based, Streptococcus faecalis
Excerpt: as §3

## COC1C(OCC2/C=C/C=C/C(=O)C(C)CC(C)C(OC3OC(C)CC4(OC(=O)OC4C)C3O)C(C)/C=C/C(=O)OC2C)OC(C)C(O)C1OC (stereo not drawn) [Swalpamycin, swalpamycin]
[1]
  minimum inhibitory concentration (MIC): > 50
S. aureus 209P
  minimum inhibitory concentration (MIC): 6.3
mycoplasma
  activity: active
solubility; hexane, petroleum ether (40°-60°)
  solubility in hexane and petroleum ether: sparingly soluble or insoluble
solubility; methanol, ethanol, n-propanol, isopropanol, n-butanol, ethyl acetate, n-butyl acetate, acetone, ethyl methyl ketone, methyl isobutyl ketone, methylene chloride, chloroform, dimethylformamide, dimethyl sulfoxide
  solubility in organic solvents: soluble
solubility; water
  solubility in water: sparingly soluble or insoluble
Mycoplasma pulmonis
  antimicrobial activity in vitro: acts in vitro
Mycoplasma gallinarum
  antimicrobial activity in vitro: acts in vitro
Bacillus subtilis [2]
  antimicrobial activity in vitro: acts in vitro
Streptococcus pyogenes
  antimicrobial activity in vitro: acts in vitro
Micrococcus luteus [3]
  antimicrobial activity in vitro: acts in vitro
Sarcina lutea [4]
  antimicrobial activity in vitro: acts in vitro
Staphylococcus aureus
  antimicrobial activity in vitro: acts in vitro against sensitive and resistant strains
Streptococcus faecalis
  antimicrobial activity in vitro: acts in vitro against sensitive and resistant strains
[5]
  activity: active
Ps. aeruginosa M 35
  minimum inhibitory concentration (MIC): > 50
Ent. cloacae
  minimum inhibitory concentration (MIC): > 50
Bacillus subtilis [6]
  minimum inhibitory concentration (MIC): 0.1
E. coli 9632
  minimum inhibitory concentration (MIC): > 50
Cit. freundii
  minimum inhibitory concentration (MIC): > 50
Prov. stuartii
  minimum inhibitory concentration (MIC): > 50
Pr. vulgaris
  minimum inhibitory concentration (MIC): > 50
Candida albicans
  minimum inhibitory concentration (MIC): > 50
Micrococcus luteus [7]
  minimum inhibitory concentration (MIC): 1.6
Sarcina lutea [8]
  minimum inhibitory concentration (MIC): 0.2
E. coli ESS 2231
  minimum inhibitory concentration (MIC): > 50
S. aureus R 85,Em^R
  minimum inhibitory concentration (MIC): 12.5
S. aureus MLS 14,Em^R
  minimum inhibitory concentration (MIC): 25
S. aureus 789 Meth.^R
  minimum inhibitory concentration (MIC): > 50
S. aureus 712 Meth^R
  minimum inhibitory concentration (MIC): 12.5
S. aureus MLS 11,Em^R
  minimum inhibitory concentration (MIC): 25
S. aureus R85/M, Em^R
  minimum inhibitory concentration (MIC): > 50
S. aureus 3066 Meth.^R
  minimum inhibitory concentration (MIC): 3.2
S. aureus 20424 Mac^R
  minimum inhibitory concentration (MIC): 50
S. aureus MLS 16,Em^R
  minimum inhibitory concentration (MIC): 12.5
Strept. faecalis UD 86
  minimum inhibitory concentration (MIC): > 50
